The values that follow come from PMC8032764 (Scientific Reports, 2021).

For one series, the system named is male F-344 rats. Description: Social approach avoidance test.
A further series concerns T1, Serotonin 5-HT2C.
T1 construct: purchased Eurofins Cerep
Description: Cerep binding. Details: species or system human. The settings on record: 10 μM; [3H]mesulergine; hum. recomb. (CHO).

The test system of the next series is Kv channel. In words: Cerep binding. The conditions noted are these: 10 μM; [125I]α−dendrotoxin; rat cerebral cortex.
Series [1] deals with T2, Vasoactive intestinal peptide PAC1 (PACAP).
T2 construct: host or cells: CHO
Description: Cerep binding. The arrangement: species or system human. The settings on record: 10 μM; [125I]PACAP1-27; hum. recomb. (CHO).

The next series addresses T3, GABAA-α5 receptors (Homo sapiens, UniProt P18507+P31644).
T3 construct: occupancy at the GABAA-α5 subunit-containing receptors in the human brain after oral dosing; from tissue; host or cells: brain of healthy human volunteers, in vivo PET
T3 sequence (P31644 32-462): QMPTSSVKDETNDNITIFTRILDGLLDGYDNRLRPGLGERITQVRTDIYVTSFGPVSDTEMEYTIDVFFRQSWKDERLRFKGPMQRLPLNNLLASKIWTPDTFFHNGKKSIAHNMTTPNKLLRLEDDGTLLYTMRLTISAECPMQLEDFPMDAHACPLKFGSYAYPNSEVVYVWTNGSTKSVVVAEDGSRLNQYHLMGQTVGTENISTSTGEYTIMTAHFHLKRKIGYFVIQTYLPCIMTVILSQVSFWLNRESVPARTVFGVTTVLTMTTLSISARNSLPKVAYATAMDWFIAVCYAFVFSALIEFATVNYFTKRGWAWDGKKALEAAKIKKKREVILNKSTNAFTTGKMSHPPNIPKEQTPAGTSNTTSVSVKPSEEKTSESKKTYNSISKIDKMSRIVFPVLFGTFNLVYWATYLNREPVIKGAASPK
T3 sequence (P18507 40-467 limits assumed): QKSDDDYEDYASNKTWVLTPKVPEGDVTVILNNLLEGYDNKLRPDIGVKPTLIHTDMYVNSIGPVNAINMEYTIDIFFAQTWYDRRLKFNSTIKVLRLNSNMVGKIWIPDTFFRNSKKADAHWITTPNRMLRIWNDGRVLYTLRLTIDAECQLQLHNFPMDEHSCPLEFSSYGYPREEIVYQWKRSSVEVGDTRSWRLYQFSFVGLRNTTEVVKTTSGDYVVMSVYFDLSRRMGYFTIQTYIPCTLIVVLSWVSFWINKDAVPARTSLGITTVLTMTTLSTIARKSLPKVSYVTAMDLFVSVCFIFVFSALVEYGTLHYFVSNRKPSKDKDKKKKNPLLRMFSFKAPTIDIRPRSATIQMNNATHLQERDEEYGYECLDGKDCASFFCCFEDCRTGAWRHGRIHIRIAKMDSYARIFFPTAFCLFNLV
T3 sequence (P28472 26-473 partner): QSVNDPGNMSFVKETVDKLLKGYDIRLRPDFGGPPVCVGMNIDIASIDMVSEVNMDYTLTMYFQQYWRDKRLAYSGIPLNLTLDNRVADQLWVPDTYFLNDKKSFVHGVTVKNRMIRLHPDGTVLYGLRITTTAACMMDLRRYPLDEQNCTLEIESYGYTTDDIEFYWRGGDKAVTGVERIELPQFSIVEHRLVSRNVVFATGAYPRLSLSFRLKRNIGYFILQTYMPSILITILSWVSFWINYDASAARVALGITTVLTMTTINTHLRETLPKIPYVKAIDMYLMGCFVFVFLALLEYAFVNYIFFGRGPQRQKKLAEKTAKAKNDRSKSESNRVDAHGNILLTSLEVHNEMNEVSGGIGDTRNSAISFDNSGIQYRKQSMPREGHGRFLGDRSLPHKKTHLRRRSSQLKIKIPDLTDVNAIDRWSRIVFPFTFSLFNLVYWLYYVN
Description: Receptor occupancy during EEG assessments. The series is classed as in vivo. The conditions noted are these: 240 mg twice daily.

Series [2] is described as follows: Plasma levels, object retrieval task. The class given is in vivo, Macaca fascicularis. The settings on record: cynomolgus monkey, oral; for concentration at 180 min: read-out: total plasma concentration. Here is the method:
Twelve cynomolgus macaques were presented with a clear acrylic box with one open side baited with a food treat, as described previously[14],[38]. The test is easy when the open side of the box is directed towards the subject and difficult when the open sides face other directions. […] Compound doses were administered in a pseudorandom order. Administration of dose and behavioral measurements were completed blind. Data were analysed using a one-way repeated measures ANOVA followed, in significant cases, by a post hoc Dunnett’s test. Plasma samples were collected from the same three subjects at each dose group at 3 h post administration. […] The calibration range was from 1.0 to 5000 ng/mL. After protein precipitation with ethanol, the sample solution was injected onto a Gemini C18 trapping column (2 × 10 mm; Phenomenex, Torrance, CA, USA) and polar endogenous compounds and salts were rinsed off. […] A drug analogue was used as an internal standard.

Series [3] relates to GABAA Cl- channel (non- selective). In words: Cerep binding. The conditions noted are these: 10 μM; [35S]TBPS; rat cerebral cortex.
A further series concerns T4, Dopamine D3.
T4 construct: host or cells: CHO
Description: Cerep binding. The conditions noted are these: 10 μM; [3H]spiperone; hum. recomb. (CHO). The arrangement: species or system human.

Series [4] in a line: Pharmacokinetics, single intravenous dosing. The class given is in vivo. The settings on record: C57/Bl6, mouse, plasma, 2.0 mg/kg i.v., 2 male.
Series [5] relates to Ca2+ channel, L-type (phenylalkylamine site). In words: Cerep binding. The conditions noted are these: 10 μM; [3H](-)D 888; rat cerebral cortex.
The subject of another series is T5, Cholecystokinin CCK1.
T5 construct: purchased Eurofins Cerep
In words: Cerep binding. The settings on record: 10 μM; [125I]CCK-8s; hum. recomb. (CHO). The arrangement: species or system human.

Where two headings read alike, the source gives them in different places. Where only a bound is given, the exact number is not on record here.

Description for male F-344 rats: Experiments on social approach avoidance were performed as described previously by[41] and[14]. A tracking system (Ethovision, Noldus, The Netherlands) was used to analyse each rat’s pathway.

The term % Inhibition denotes the change of the read-out against control, counted positive when it falls. As usually defined, the half-life is the time needed for the level to fall by half in the phase considered. High values mean slow decline, low ones rapid decline. As to `Cc1onc(-c2ccc(F)cc2)c1COc1ccc(C(=O)N2CCS(=O)(=O)CC2)cn1` [basmisanil], the “time spent in the social compartment” value with male F-344 rats (3–100 mg/kg p.o., 1 h prior to testing) was “did not significantly reduce the time spent in the social compartment”. In addition, the “anxiogenic-like effect (time in social compartment and in hidden area)” value with male F-344 rats (up to 100 mg/kg p.o.) is given as “did not have an anxiogenic-like effect”. For the same compound, the “% Inhibition” value in the series with Serotonin 5-HT2C was 10%; with Kv channel, -1%; in [1] it was -16%; in series [3], -6%; with Dopamine D3, 3%; in [5] it was -3%. Further, in the series with Cholecystokinin CCK1, the “% Inhibition” value is 10%. Besides, the receptor occupancy at 240 mg at GABAA-α5 receptors (14 days, read-out: occupancy of GABAA-α5 receptors) was greater than 90%; on GABAA-α5 receptors (day 14, 1 h post morning dose, read-out: receptor occupancy), 92 ± 3%; on GABAA-α5 receptors (day 14, 4 h post morning dose, read-out: receptor occupancy), 94 ± 1.5%. The concentration at 180 min turned out to be 257 ng/mL in [2] (1 mg/kg p.o.), 1020 ng/mL in [2] (3 mg/kg p.o.), 2260 ng/mL in series [2] (10 mg/kg p.o.) and 2850 ng/mL in series [2] (30 mg/kg p.o.). The concentration at 3 h in series [2] (3 mg/kg p.o., read-out: free plasma concentration) was determined as 156 nM. In addition, the half-life in [4] is 30 min. Besides, the clearance in series [4] (read-out: Total CL) amounted to 37 mL/min/kg. The Vd in series [4] (read-out: Vss) came to 1.3 L/kg.
